PMC10648852, “Molecular drivers of resistance to sulbactam-durlobactam in contemporary clinical isolates of Acinetobacter baumannii” (Antimicrobial Agents and Chemotherapy, 2023)

Columns and labels:
Experiment in all cases: microbe, parasite or virus in culture
[1] = test system: A. nosocomialis clinical isolate; format: cell-based; details: isolate ARC7023 (IHMA 2118812), France, BSI, 2019
Procedure: (§1) The following report describes the genomic analysis of these isolates for likely resistance mechanisms. Biochemical analysis of purified PBP3 and phenotypic analyses of both clinical and isogenic strains were also conducted to determine the relative impact of key resistance determinants to SUL-DUR antibacterial activity.
(§2) Antimicrobial susceptibility testing was performed using broth microdilution following standardized methods established by the Clinical Laboratory Standards Institute (CLSI) ([35], [36]). […] MIC values were interpreted using CLSI breakpoints for all antimicrobial agents except those for which CLSI breakpoints are not available ([35]). SUL-DUR was tested as twofold dilutions of sulbactam in combination with a fixed concentration of 4 µg/mL durlobactam ([35]).

[2] = test system: A. baumannii clinical isolates; format: cell-based
Procedure: as §1, §2

[3] = test system: A. pittii clinical isolates; format: cell-based
Procedure: as §1, §2

[4] = test system: ABC clinical isolates with SUL-DUR MIC > 4 µg/mL; format: cell-based, Acinetobacter baumannii-calcoaceticus complex
Procedure: as §1, §2

CN(C)c1ccc(O)c2c1C[C@H]1C[C@H]3[C@H](N(C)C)C(O)=C(C(N)=O)C(=O)[C@@]3(O)C(O)=C1C2=O [MIN]
MIC [1]: 0.5 µg/mL
MIC ([2]; isolate ARC6644 (IHMA 1420327), Mexico, UTI, 2016): 8 µg/mL
MIC ([2]; isolate ARC6645 (IHMA 1435703), France, UTI, 2016): 0.5 µg/mL
MIC ([2]; isolate ARC6646 (IHMA 1484127), United States, RTI, 2016): 8 µg/mL
MIC ([2]; isolate ARC6647 (IHMA 1386786), Argentina, RTI, 2016): 1 µg/mL
MIC ([2]; isolate ARC6648 (IHMA 1407634), Spain, RTI, 2016): 1 µg/mL
MIC ([2]; isolate ARC6650 (IHMA 1457337), Argentina, RTI, 2016): 4 µg/mL
MIC ([2]; isolate ARC6652 (IHMA 1465642), Belgium, RTI, 2016): ≤0.12 µg/mL
MIC ([2]; isolate ARC6653 (IHMA 1308777), Vietnam, RTI, 2016): 16 µg/mL
MIC ([2]; isolate ARC6799 (IHMA 1562935), Spain, UTI, 2017): >16 µg/mL
MIC ([2]; isolate ARC6800 (IHMA 1557526), Turkey, RTI, 2017): 2 µg/mL
MIC ([2]; isolate ARC6801 (IHMA 1662094), Thailand, RTI, 2017): 0.5 µg/mL
MIC ([2]; isolate ARC6802 (IHMA 1557073), Spain, UTI, 2017): >16 µg/mL
MIC ([2]; isolate ARC6803 (IHMA 1589408), Belgium, UTI, 2017): ≤0.12 µg/mL
MIC ([2]; isolate ARC6805 (IHMA 1558650), United States, RTI, 2017): 8 µg/mL
MIC ([2]; isolate ARC6808 (IHMA 1557168), Spain, RTI, 2017): 16 µg/mL
MIC ([2]; isolate ARC6809 (IHMA 1699528), Guatemala, RTI, 2017): ≤0.12 µg/mL
MIC ([2]; isolate ARC6810 (IHMA 1699548), Guatemala, RTI, 2017): 1 µg/mL
MIC ([2]; isolate ARC6812 (IHMA 1699530), Guatemala, RTI, 2017): 0.25 µg/mL
MIC ([2]; isolate ARC6813 (IHMA 1699543), Guatemala, UTI, 2017): 0.25 µg/mL
MIC ([2]; isolate ARC6814 (IHMA 1699512), Guatemala, RTI, 2017): 4 µg/mL
MIC ([2]; isolate ARC6815 (IHMA 1699513), Guatemala, RTI, 2017): 0.25 µg/mL
MIC ([2]; isolate ARC6816 (IHMA 1699521), Guatemala, RTI, 2017): 8 µg/mL
MIC ([2]; isolate ARC6817 (IHMA 1699523), Guatemala, RTI, 2017): ≤0.12 µg/mL
MIC ([2]; isolate ARC6818 (IHMA 1683261), Thailand, RTI, 2017): ≤0.12 µg/mL
MIC ([2]; isolate ARC6819 (IHMA 1683267), Thailand, RTI, 2017): 8 µg/mL
MIC ([2]; isolate ARC6820 (IHMA 1647876), Argentina, RTI, 2017): 4 µg/mL
MIC ([2]; isolate ARC6821 (IHMA 1699517), Guatemala, RTI, 2017): ≤0.12 µg/mL
MIC ([2]; isolate ARC6822 (IHMA 1637626), Guatemala, RTI, 2017): 0.25 µg/mL
MIC ([2]; isolate ARC6823 (IHMA 1620872), Greece, SSSI, 2017): 8 µg/mL
MIC ([2]; isolate ARC6824 (IHMA 1625487), Argentina, BSI, 2017): 2 µg/mL
MIC ([2]; isolate ARC6937 (IHMA 1562926), Spain, UTI, 2017): >16 µg/mL
MIC ([2]; isolate ARC6950 (IHMA 1820064), Israel, RTI, 2018): 2 µg/mL
MIC ([2]; isolate ARC6953 (IHMA 1909827), Turkey, IAI, 2018): 0.5 µg/mL
MIC ([2]; isolate ARC6954 (IHMA 1838192), Guatemala, SSSI, 2018): 0.5 µg/mL
MIC ([2]; isolate ARC6955 (IHMA 1825425), United States, RTI, 2018): 2 µg/mL
MIC ([2]; isolate ARC7008 (IHMA 2009813), Thailand, BSI, 2019): 4 µg/mL
MIC ([2]; isolate ARC7009 (IHMA 2043611), United States, UTI, 2019): 2 µg/mL
MIC ([2]; isolate ARC7010 (IHMA 2043398), United States, RTI, 2019): 1 µg/mL
MIC ([2]; isolate ARC7011 (IHMA 2104553), Germany, RTI, 2019): 2 µg/mL
MIC ([2]; isolate ARC7012 (IHMA 2010001), Thailand, RTI, 2019): 2 µg/mL
MIC ([2]; isolate ARC7013 (IHMA 1962831), Argentina, RTI, 2019): 1 µg/mL
MIC ([2]; isolate ARC7014 (IHMA 2045328), Guatemala, IAI, 2019): 16 µg/mL
MIC ([2]; isolate ARC7015 (IHMA 2045327), Guatemala, UTI, 2019): 0.25 µg/mL
MIC ([2]; isolate ARC7016 (IHMA 2148441), Brazil, BSI, 2019): 0.5 µg/mL
MIC ([2]; isolate ARC7017 (IHMA 2148446), Brazil, BSI, 2019): 0.25 µg/mL
MIC ([2]; isolate ARC7018 (IHMA 2045454), Guatemala, IAI, 2019): 0.25 µg/mL
MIC ([2]; isolate ARC7019 (IHMA 2114463), Thailand, RTI, 2019): 1 µg/mL
MIC ([2]; isolate ARC7020 (IHMA 2045326), Guatemala, RTI, 2019): 0.5 µg/mL
MIC ([2]; isolate ARC7021 (IHMA 1966347), Guatemala, RTI, 2019): 0.25 µg/mL
MIC ([2]; isolate ARC7022 (IHMA 2045319), Guatemala, IAI, 2019): 1 µg/mL
MIC ([2]; isolate ARC7024 (IHMA 2059448), Turkey, RTI, 2019): 2 µg/mL
MIC ([2]; isolate ARC7025 (IHMA 2002121), Spain, RTI, 2019): 8 µg/mL
MIC ([2]; isolate ARC7026 (IHMA 2104494), Guatemala, BSI, 2019): 2 µg/mL
MIC ([2]; isolate ARC7082 (IHMA 2160640), Belgium, BSI, 2020): 16 µg/mL
MIC ([2]; isolate ARC7083 (IHMA 2163687), United States, RTI, 2020): 16 µg/mL
MIC ([2]; isolate ARC7084 (IHMA 2189596), Germany, RTI, 2020): 1 µg/mL
MIC ([2]; isolate ARC7085 (IHMA 2205747), Guatemala, IAI, 2020): 1 µg/mL
MIC ([2]; isolate ARC7086 (IHMA 2207563), Israel, RTI, 2020): 2 µg/mL
MIC ([2]; isolate ARC7088 (IHMA 2215554), Turkey, BSI, 2020): 16 µg/mL
MIC ([2]; isolate ARC7089 (IHMA 2240345), Argentina, BSI, 2020): 2 µg/mL
MIC ([2]; isolate ARC7090 (IHMA 2244410), Poland, RTI, 2020): 4 µg/mL
MIC ([2]; isolate ARC7091 (IHMA 2244564), Australia, RTI, 2020): ≤0.12 µg/mL
MIC ([2]; isolate ARC7092 (IHMA 2258772), United States, BSI, 2020): 4 µg/mL
MIC ([2]; isolate ARC7093 (IHMA 2258783), United States, RTI, 2020): 8 µg/mL
MIC ([2]; isolate ARC7094 (IHMA 2296423), Turkey, RTI, 2020): 2 µg/mL
MIC ([2]; isolate ARC7095 (IHMA 2320843), Turkey, BSI, 2020): 8 µg/mL
MIC ([2]; isolate ARC7156 (IHMA 2455450), Greece, RTI, 2021): >16 µg/mL
MIC ([2]; isolate ARC7158 (IHMA 2523738), Italy, BSI, 2021): 2 µg/mL
MIC ([2]; isolate ARC7159 (IHMA 2456229), Malaysia, RTI, 2021): 4 µg/mL
MIC ([2]; isolate ARC7160 (IHMA 2458626), Thailand, RTI, 2021): 1 µg/mL
MIC ([2]; isolate ARC7161 (IHMA 2429252), Ukraine, RTI, 2021): 16 µg/mL
MIC ([2]; isolate ARC7162 (IHMA 2411847), United States, BSI, 2021): 2 µg/mL
MIC ([2]; isolate ARC7163 (IHMA 2477704), United States, BSI, 2021): 2 µg/mL
MIC ([3]; isolate ARC6949 (IHMA 1898982), Romania, RTI, 2018): 0.5 µg/mL
MIC ([3]; isolate ARC6951 (IHMA 1776233), Philippines, RTI, 2018): 0.25 µg/mL
MIC ([3]; isolate ARC6952 (IHMA 1899008), Romania, RTI, 2018): 1 µg/mL
MIC ([3]; isolate ARC7087 (IHMA 2212062), Colombia, BSI, 2020): ≤0.12 µg/mL
MIC50 [4]: 2 µg/mL
MIC90 [4]: 16 µg/mL
MIC Max [4]: >16 µg/mL
MIC Min [4]: ≤0.12 µg/mL
%NS (% non-susceptibility) ([4]; 64 non-clonal ABC isolates, 2023 CLSI breakpoints plus FDA breakpoint of 4 µg/mL for SUL-DUR): 27%
